≈ marks a conversion by molar mass, not a printed value. Structures can show the parent of a compound that is named as a salt.
Assays:
Staphylococcus aureus = assay: test tube serial dilution test (minimal inhibitory concentration), S. aureus (Gram positive); assay type: cell-based; conditions: broth serial dilution; for MIC: Staphylococcus aureus, read-out: Minimum Inhibitory Concentration, S. aureus
Source text: (§1) It has been observed that the compounds generally described by the foregoing formula are particularly effective against gram positive organisms such as Staphylococcus aureus, Streptococcus sanguis and Streptococcus mutans; gram negative organisms such as Pseudomonas aeruginosa and Escherichia coli; and against fungi, such as Candida alibicans (yeast) and Trichophyton mentogrophytes and Aspergillus niger (mold). Compounds wherein A or B is a carboxyl radical in lieu of instant alkyl ester radical are substantially devoid of antibacterial activity.
(§2) The anti-microbial nature of the instant novel nontoxic compounds was shown by a standard test tube serial dilution test in which an appropriate number of test tubes of broth containing decreasing concentrations of the test agent was innoculated with the test organism (0.1% in ethyl alcohol). After a suitable period of incubation, the tubes were examined for the presence or absence of growth. The activity of the test agent was the lowest concentration which inhibited the growth of the organism and is expressed as the minimal inhibitory concentration in μ gm/ml. As shown in the following table of antimicrobial data, the dibiguanides of this invention are active against a variety of micro-organisms with maximum activity with a butyl and pentyl ester substituent on the phenyl radical.

Streptococcus mutans = assay: test tube serial dilution test (minimal inhibitory concentration), Strep. mutans (Gram positive); assay type: cell-based; conditions: broth serial dilution; for MIC: Streptococcus mutans, read-out: Minimum Inhibitory Concentration, Strep. mutans
Source text: as §1, §2

Streptococcus sanguis = assay: test tube serial dilution test (minimal inhibitory concentration), Strep. sanguis (Gram positive); assay type: cell-based; conditions: broth serial dilution; for MIC: Streptococcus, read-out: Minimum Inhibitory Concentration, Strep. sanguis
Source text: as §1, §2

Pseudomonas aeruginosa = assay: test tube serial dilution test (minimal inhibitory concentration), Ps. aeruginosa (Gram negative); assay type: cell-based; conditions: broth serial dilution; for MIC: Pseudomonas aeruginosa, read-out: Minimum Inhibitory Concentration, Ps. aeruginosa
Source text: as §1, §2

Escherichia coli = assay: test tube serial dilution test (minimal inhibitory concentration), E. coli (Gram negative); assay type: cell-based; conditions: broth serial dilution; for MIC: Escherichia coli, read-out: Minimum Inhibitory Concentration, E. coli
Source text: as §1, §2

C. albicans = assay: test tube serial dilution test (minimal inhibitory concentration), C. albicans (yeast); assay type: cell-based; conditions: broth serial dilution; for MIC: Candida albicans, read-out: Minimum Inhibitory Concentration, C. albicans
Source text: as §1, §2

[1] = test system: Trichophyton mentogrophytes; assay: test tube serial dilution test (minimal inhibitory concentration), T. ment (mold); assay type: cell-based; conditions: broth serial dilution; for MIC: Trichophyton, read-out: Minimum Inhibitory Concentration, T. ment
Source text: as §1, §2

Aspergillus niger = assay: test tube serial dilution test (minimal inhibitory concentration), A. niger (mold); assay type: cell-based; conditions: broth serial dilution; for MIC: Aspergillus niger, read-out: Minimum Inhibitory Concentration, A. niger
Source text: as §1, §2

[2] = literature; cited from earlier work
dental plaque = conditions: background statement; cited from earlier work
[3] = on standing; cited from earlier work

| Compound | Minimum Inhibitory Concentration, S. aureus (Staphylococcus aureus) | Minimum Inhibitory Concentration, Strep. mutans (Streptococcus mutans) | Minimum Inhibitory Concentration, Strep. sanguis (Streptococcus sanguis) | Minimum Inhibitory Concentration, Ps. aeruginosa (Pseudomonas aeruginosa) [μgm/ml] | Minimum Inhibitory Concentration, E. coli (Escherichia coli) | Minimum Inhibitory Concentration, C. albicans (C. albicans) [μgm/ml] | Minimum Inhibitory Concentration, T. ment [1] [μgm/ml] | Minimum Inhibitory Concentration, A. niger (Aspergillus niger) [μgm/ml] | MIC (Staphylococcus aureus) [µg/mL] | MIC (Streptococcus mutans) [µg/mL] | MIC (Streptococcus sanguis) [µg/mL] | MIC (Pseudomonas aeruginosa) [µg/mL] | MIC (Escherichia coli) [µg/mL] | MIC (C. albicans) [µg/mL] | MIC [1] [µg/mL] | MIC (Aspergillus niger) [µg/mL] | bacteriostatic activity in words [2] | antibacterial effect against dental plaque (dental plaque) | hydrolysis of solutions to p-chloroaniline [3] |
| --- | --- | --- | --- | --- | --- | --- | --- | --- | --- | --- | --- | --- | --- | --- | --- | --- | --- | --- | --- |
| N=C(NCCCCCCNC(=N)NC(=N)Nc1ccc(Cl)cc1)NC(=N)Nc1ccc(Cl)cc1 [Chlorhexidine hydrochloride, reference compound] | .19 μgm/ml | < .05 μgm/ml | 6.25 μgm/ml | 12.5 | .78 μgm/ml | 3.12 | 1.56 | 25 |  |  |  |  |  |  |  |  |  |  |  |
| CCCCCCOC(=O)c1ccc(NC(=N)NC(=N)NCCCCCCNC(=N)NC(=N)Nc2ccc(C(=O)OCCCCCC)cc2)cc1 [A = C6 H13 OCO, B = H] |  |  |  |  |  |  |  |  | 0.39 (≈ 0.563 µM) | 0.39 (≈ 0.563 µM) | 0.39 (≈ 0.563 µM) | 50 (≈ 72.2 µM) | 6.25 (≈ 9.02 µM) | 0.39 (≈ 0.563 µM) | 12.5 (≈ 18 µM) | 100 (≈ 144 µM) |  |  |  |
| CCCCOC(=O)c1cccc(NC(=N)NC(=N)NCCCCCCNC(=N)NC(=N)Nc2cccc(C(=O)OCCCC)c2)c1 [A = H, B = C4 H9 OCO] |  |  |  |  |  |  |  |  | < 0.05 | < 0.05 | 1.56 (≈ 2.45 µM) | 12.5 (≈ 19.6 µM) | 0.78 (≈ 1.22 µM) | 0.39 (≈ 0.612 µM) | 6.25 (≈ 9.81 µM) | 50 (≈ 78.5 µM) |  |  |  |
| CC(C)OC(=O)c1cccc(NC(=N)NC(=N)NCCCCCCNC(=N)NC(=N)Nc2cccc(C(=O)OC(C)C)c2)c1 [A = H, B = (CH3)2 CHOCO, dihydrochloride] |  |  |  |  |  |  |  |  | 0.19 | 0.1 | 12.5 | 50 | 3.12 | 3.12 | 12.5 | 50 |  |  |  |
| COC(=O)c1ccc(NC(=N)NC(=N)NCCCCCCNC(=N)NC(=N)Nc2ccc(C(=O)OC)cc2)cc1 [A = CH3 OCO, B = H] | 6.25 μgm/ml | 1.56 μgm/ml | 50 μgm/ml | 50 | 25 μgm/ml | 25 | 12.5 | 100 |  |  |  |  |  |  |  |  |  |  |  |
| CCOC(=O)c1ccc(NC(=N)NC(=N)NCCCCCCNC(=N)NC(=N)Nc2ccc(C(=O)OCC)cc2)cc1 [A = C2 H5 OCO, B = H, N,N"-bis(4-ethoxycarbonylphenyl)-3,12-diimino-2,4,11,13-tetraazatetradecanediimidamide dihydrochloride] |  |  |  |  |  |  |  |  | 0.78 | 0.39 | 25 | 25 | 1.56 | 12.5 | 12.5 | 100 |  |  |  |
| CC(C)OC(=O)c1ccc(NC(=N)NC(=N)NCCCCCCNC(=N)NC(=N)Nc2ccc(C(=O)OC(C)C)cc2)cc1 [A = (CH3)2 CHOCO, B = H] |  |  |  |  |  |  |  |  | 0.19 (≈ 0.312 µM) | 0.1 (≈ 0.164 µM) | 6.25 (≈ 10.3 µM) | 25 (≈ 41.1 µM) | 1.56 (≈ 2.56 µM) | 1.56 (≈ 2.56 µM) | 6.25 (≈ 10.3 µM) | 50 (≈ 82.1 µM) |  |  |  |
| COC(=O)c1cccc(NC(=N)NC(=N)NCCCCCCNC(=N)NC(=N)Nc2cccc(C(=O)OC)c2)c1 [A = H, B = CH3 OCO] |  |  |  |  |  |  |  |  | 3.12 (≈ 5.65 µM) | 1.56 (≈ 2.82 µM) | 100 (≈ 181 µM) | 50 (≈ 90.5 µM) | 12.5 (≈ 22.6 µM) | 25 (≈ 45.2 µM) | 12.5 (≈ 22.6 µM) | 100 (≈ 181 µM) |  |  |  |
| N=C(NCCCCCCNC(=N)NC(=N)Nc1ccc(Cl)cc1)NC(=N)Nc1ccc(Cl)cc1 [Chlorhexidine, reference compound] |  |  | 3.12 μgm/ml |  | 0.19 μgm/ml |  |  |  | 0.19 (≈ 0.376 µM) | < 0.05 |  |  |  | 1.56 (≈ 3.09 µM) |  | 25 (≈ 49.5 µM) | selected as the best | effective antibacterial agent against dental plaque | hydrolyze on standing to form additional amounts of p-chloroaniline |
| CCCOC(=O)c1ccc(NC(=N)NC(=N)NCCCCCCNC(=N)NC(=N)Nc2ccc(C(=O)OCCC)cc2)cc1 [A = C3 H7 OCO, B = H] |  |  |  |  |  |  |  |  | 0.19 (≈ 0.312 µM) | < 0.05 | 3.12 (≈ 5.13 µM) | 25 (≈ 41.1 µM) | 1.56 (≈ 2.56 µM) | 3.12 (≈ 5.13 µM) | 3.12 (≈ 5.13 µM) | 100 (≈ 164 µM) |  |  |  |
| N=C(NCCCCCCNC(=N)NC(=N)Nc1ccc(C(=O)O)cc1)NC(=N)Nc1ccc(C(=O)O)cc1 [A = COOH, B = H, reference compound] |  |  |  |  |  |  |  |  | 10 (≈ 19.1 µM) | 25 (≈ 47.7 µM) | 100 (≈ 191 µM) | 50 (≈ 95.3 µM) | 100 (≈ 191 µM) | 100 (≈ 191 µM) | 100 (≈ 191 µM) | 100 (≈ 191 µM) |  |  |  |
| COC(=O)c1ccc(NC(=N)NC(=N)NCCCCCCNC(=N)NC(=N)Nc2ccc(C(=O)OC)cc2)cc1 [drawing 6: A = CH3 OCO, B = H] | 3.12 μgm/ml | 25 μgm/ml |  |  |  |  |  |  |  |  | 50 (≈ 90.5 µM) | 25 (≈ 45.2 µM) | 50 (≈ 90.5 µM) | 25 (≈ 45.2 µM) | 25 (≈ 45.2 µM) | 100 (≈ 181 µM) |  |  |  |
| CCCCOC(=O)c1ccc(NC(=N)NC(=N)NCCCCCCNC(=N)NC(=N)Nc2ccc(C(=O)OCCCC)cc2)cc1 [drawing 6: A = C4 H9 OCO, B = H] |  |  |  |  |  |  | 0.19 |  | 0.05 (≈ 0.0785 µM) | < 0.05 | 0.78 (≈ 1.22 µM) | 25 (≈ 39.3 µM) | 3.12 (≈ 4.9 µM) | 0.78 (≈ 1.22 µM) |  | 100 (≈ 157 µM) |  |  |  |
| CCCCCOC(=O)c1ccc(NC(=N)NC(=N)NCCCCCCNC(=N)NC(=N)Nc2ccc(C(=O)OCCCCC)cc2)cc1 [A = C5 H11 OCO, B = H] |  |  |  |  |  |  |  |  | 0.39 (≈ 0.587 µM) | < 0.05 | 0.19 (≈ 0.286 µM) | 50 (≈ 75.2 µM) | 25 (≈ 37.6 µM) | 0.39 (≈ 0.587 µM) | 25 (≈ 37.6 µM) | 50 (≈ 75.2 µM) |  |  |  |
| CCCCCCCCOC(=O)c1ccc(NC(=N)NC(=N)NCCCCCCNC(=N)NC(=N)Nc2ccc(C(=O)OCCCCCCCC)cc2)cc1 [A = C8 H17 OCO, B = H, N,N"-bis(4-Octyloxycarbonylphenyl)-3,12-diimino-2,4,11,13-tetraazatetradecanediimidamide dihydrochloride] |  |  |  |  |  |  |  |  | 1.56 | 1.56 | 25 | 50 | 12.5 | 12.5 | 25 | 100 |  |  |  |
| CCCCOC(=O)c1ccc(NC(=N)NC(=N)NCCCCCCNC(=N)NC(=N)Nc2ccc(C(=O)OCCCC)cc2)cc1 [A = C4 H9 OCO, B = H] | 0.1 μgm/ml | < .05 μgm/ml | .78 μgm/ml | 12.5 | 1.56 μgm/ml | 0.78 | 12.5 | 50 |  |  |  |  |  |  |  |  |  |  |  |

Reference: patent US4059687A, “Ester substituted dibiguanides and non-toxic antimicrobial compositions thereof” (Colgate Palmolive Company, priority 1976, dated 1977)
